Each structure is given as a SMILES string. ≈ marks a conversion by molar mass, not a printed value.

The first series concerns Trypanosoma cruzi. Description: Antitrypanosomal activity against Trypanosoma cruzi Tulahuen strain C2C4 trypomastigotes infected in rat L6 cells incubated for 96 hrs by photometric method based assay. Format: functional, organism-based. As to conditions: Tulahuen strain C2C4, L6, 96 h.
For the compound `O=c1[nH]c2ccc(-c3cncnc3)cc2c(=O)n1CCC1CCCCC1`, the EC50 (as a rule, the midpoint of the concentration-response curve) turned out to be 14 µM.
`CC(=O)Nc1ccc2[nH]c(=O)n([C@H](C)C3CCCCC3)c(=O)c2c1` showed an EC50 of 2.2 µM.
`Cc1noc(C)c1-c1ccc2[nH]c(=O)n(CCC3CCCCC3)c(=O)c2c1` registered an EC50 of 120 µM.
On the same count and under the same terms, to `CC(=O)Nc1ccc2[nH]c(=O)n(C3CCN(C(C)(C)C)CC3)c(=O)c2c1` belongs 220 µM; to `CC(=O)Nc1ccc2[nH]c(=O)n(CCC(C)C)c(=O)c2c1`, 9.7 µM; to `CC(=O)Nc1ccc2[nH]c(=O)n(CCC3CCCCC3)c(=O)c2c1`, 0.73 µM.
On the same count and under the same terms, the value for `CC(=O)Nc1ccc2[nH]c(=O)n(-c3ccc(C(C)(C)C)cc3)c(=O)c2c1` was 4.3 µM; that for `CCCCCCn1c(=O)[nH]c2ccc(NC(C)=O)cc2c1=O` was 2.9 µM; that for `COCCn1c(=O)[nH]c2ccc(NC(C)=O)cc2c1=O` was 35 µM.
Still for that read-out and setting: the value for `CC(=O)Nc1ccc2[nH]c(=O)n(C3CCN(C(=O)OC(C)(C)C)CC3)c(=O)c2c1` was 30 µM; that for `CC(=O)Nc1ccc2[nH]c(=O)n(C3CCCCC3)c(=O)c2c1` was 4.2 µM.
`CC(=O)Nc1ccc2[nH]c(=O)n(CC3CCCCC3)c(=O)c2c1`: the EC50 worked out at 2.3 µM.
`CC(=O)Nc1ccc2[nH]c(=O)n(C3CCCC3)c(=O)c2c1` returned an EC50 of 12 µM.
Still for that read-out and setting: to `CC(=O)Nc1ccc2[nH]c(=O)n([C@H]3CC[C@H](C(C)(C)O)CC3)c(=O)c2c1` belongs 139 µM; to `CC(=O)Nc1ccc2[nH]c(=O)n(C3CCCCCC3)c(=O)c2c1`, 2.1 µM; to `O=c1[nH]c2ccc(-c3cccnc3)cc2c(=O)n1CCC1CCCCC1`, 1.9 µM.
As to `CC[C@H]1CC[C@H](n2c(=O)[nH]c3ccc(N)cc3c2=O)CC1`, the EC50 is 0.12 µM.
`CC(=O)Nc1ccc2[nH]c(=O)n([C@H]3CC[C@H](OC(C)C)CC3)c(=O)c2c1` showed a half-maximal effective concentration (EC50) of 3.1 µM.
In the case of `CC(=O)Nc1ccc2[nH]c(=O)n(CCCC(C)C)c(=O)c2c1`, the EC50 is 4 µM.
Still for that read-out and setting: to `CC(C)(C)C(=O)Nc1ccc2[nH]c(=O)n(CCC3CCCCC3)c(=O)c2c1` belongs 7.1 µM.
For the compound `CC(=O)Nc1ccc2[nH]c(=O)n(C3CCN(C(=O)OC(C)(C)C)C3)c(=O)c2c1` (racemic), the midpoint of the response, the EC50, lay at 54 µM. This EC50 is about 7.6-fold higher than that of the compound before.
The same measure, in the same setting: to `CC(=O)Nc1ccc2[nH]c(=O)n(C3CCC(C(C)(C)C)C3)c(=O)c2c1` (racemic) belongs 0.02 µM.
Still for that read-out and setting: the value for `CC(C)(C)[C@H]1CC[C@H](n2c(=O)[nH]c3ncc(N)cc3c2=O)CC1` was 0.66 µM.

The test system of a further series is L6. Briefly: Cytotoxicity against rat L6 cells incubated for 70 hrs by resazurin dye based assay. Conditions: L6, 70 h. Format: cell-based. (In general: Alamar Blue is a resazurin reagent that responds to reducing activity.)
Consider `COc1cc([C@@H]2c3cc4c(cc3[C@H](O)[C@H]3COC(=O)[C@H]23)OCO4)cc(OC)c1OC` [PODOFILOX], for which the midpoint of the response, the EC50, lay at 0.014 µM.
Same read-out and setting: to `O=c1[nH]c2ccc(-c3cncnc3)cc2c(=O)n1CCC1CCCCC1` belongs 126 µM; to `CC(=O)Nc1ccc2[nH]c(=O)n([C@H](C)C3CCCCC3)c(=O)c2c1`, 88 µM; to `Cc1noc(C)c1-c1ccc2[nH]c(=O)n(CCC3CCCCC3)c(=O)c2c1`, 88 µM.
The same measure, in the same setting: to `CC(=O)Nc1ccc2[nH]c(=O)n(C3CCN(C(C)(C)C)CC3)c(=O)c2c1` belongs more than 280 µM; to `CC(=O)Nc1ccc2[nH]c(=O)n(CCC(C)C)c(=O)c2c1`, 163 µM.
Still for that read-out and setting: to `CC(=O)Nc1ccc2[nH]c(=O)n(CCC3CCCCC3)c(=O)c2c1` belongs 52 µM.
Compound `CC(=O)Nc1ccc2[nH]c(=O)n(-c3ccc(C(C)(C)C)cc3)c(=O)c2c1` displayed an EC50 of 17 µM.
`CCCCCCn1c(=O)[nH]c2ccc(NC(C)=O)cc2c1=O` registered an EC50 of 154 µM.
Same read-out and setting: the value for `COCCn1c(=O)[nH]c2ccc(NC(C)=O)cc2c1=O` was 0.1 µM; that for `CC(=O)Nc1ccc2[nH]c(=O)n(C3CCN(C(=O)OC(C)(C)C)CC3)c(=O)c2c1` was 127 µM.
The same measure, in the same setting: the value for `CC(=O)Nc1ccc2[nH]c(=O)n(C3CCCCC3)c(=O)c2c1` was 70 µM.
The same measure, in the same setting: to `CC(=O)Nc1ccc2[nH]c(=O)n(CC3CCCCC3)c(=O)c2c1` belongs 54 µM; to `CC(=O)Nc1ccc2[nH]c(=O)n(C3CCCC3)c(=O)c2c1`, 184 µM; to `CC(=O)Nc1ccc2[nH]c(=O)n([C@H]3CC[C@H](C(C)(C)O)CC3)c(=O)c2c1`, 136 µM.
Compound `CC(=O)Nc1ccc2[nH]c(=O)n(C3CCCCCC3)c(=O)c2c1` displayed an EC50 of 112 µM.
The same measure, in the same setting: to `O=c1[nH]c2ccc(-c3cccnc3)cc2c(=O)n1CCC1CCCCC1` belongs 14 µM; to `CC[C@H]1CC[C@H](n2c(=O)[nH]c3ccc(N)cc3c2=O)CC1`, 32 µM; to `CC(=O)Nc1ccc2[nH]c(=O)n([C@H]3CC[C@H](OC(C)C)CC3)c(=O)c2c1`, 136 µM.
On the same count and under the same terms, to `CC(=O)Nc1ccc2[nH]c(=O)n(CCCC(C)C)c(=O)c2c1` belongs 173 µM.
In the case of `CC(C)(C)C(=O)Nc1ccc2[nH]c(=O)n(CCC3CCCCC3)c(=O)c2c1`, the response was half-maximal at 13 µM (EC50).
The same measure, in the same setting: to `CC(=O)Nc1ccc2[nH]c(=O)n(C3CCN(C(=O)OC(C)(C)C)C3)c(=O)c2c1` (racemic) belongs 170 µM; to `CC(=O)Nc1ccc2[nH]c(=O)n(C3CCC(C(C)(C)C)C3)c(=O)c2c1` (racemic), 41 µM; to `CC(C)(C)[C@H]1CC[C@H](n2c(=O)[nH]c3ncc(N)cc3c2=O)CC1`, 63 µM.

System in the next series: not listed separately
Description: Selectivity ratio, EC50 for cytotoxicity against rat L6 cells to EC50 for antitrypanosomal activity against Trypanosoma cruzi Tulahuen strain C2C4 trypomastigotes infected in rat L6 cells. The series is classed as toxicity, cell-based. As to conditions: read-out: Ratio EC50.
As for `O=c1[nH]c2ccc(-c3cncnc3)cc2c(=O)n1CCC1CCCCC1`, the selectivity ratio is 9.
The same measure, in the same setting: to `CC(=O)Nc1ccc2[nH]c(=O)n([C@H](C)C3CCCCC3)c(=O)c2c1` belongs 40; to `CC(=O)Nc1ccc2[nH]c(=O)n(C3CCN(C(C)(C)C)CC3)c(=O)c2c1`, 1; to `CC(=O)Nc1ccc2[nH]c(=O)n(CCC(C)C)c(=O)c2c1`, 17.
On the same count and under the same terms, the value for `CC(=O)Nc1ccc2[nH]c(=O)n(CCC3CCCCC3)c(=O)c2c1` was 110.
Same read-out and setting: to `CC(=O)Nc1ccc2[nH]c(=O)n(-c3ccc(C(C)(C)C)cc3)c(=O)c2c1` belongs 4.
On to `CCCCCCn1c(=O)[nH]c2ccc(NC(C)=O)cc2c1=O`, for which the selectivity ratio was 53.
The same measure, in the same setting: the value for `COCCn1c(=O)[nH]c2ccc(NC(C)=O)cc2c1=O` was 0.003; that for `CC(=O)Nc1ccc2[nH]c(=O)n(C3CCN(C(=O)OC(C)(C)C)CC3)c(=O)c2c1` was 4.2; that for `CC(=O)Nc1ccc2[nH]c(=O)n(C3CCCCC3)c(=O)c2c1` was 17.
With `CC(=O)Nc1ccc2[nH]c(=O)n(CC3CCCCC3)c(=O)c2c1`, the selectivity ratio stood at 23.
Same read-out and setting: the value for `CC(=O)Nc1ccc2[nH]c(=O)n(C3CCCC3)c(=O)c2c1` was 15; that for `CC(=O)Nc1ccc2[nH]c(=O)n([C@H]3CC[C@H](C(C)(C)O)CC3)c(=O)c2c1` was 0.98; that for `CC(=O)Nc1ccc2[nH]c(=O)n(C3CCCCCC3)c(=O)c2c1` was 53.
Take `O=c1[nH]c2ccc(-c3cccnc3)cc2c(=O)n1CCC1CCCCC1`: the selectivity ratio was 7.4.
As to `CC[C@H]1CC[C@H](n2c(=O)[nH]c3ccc(N)cc3c2=O)CC1`, the selectivity ratio came to 270.
Consider `CC(=O)Nc1ccc2[nH]c(=O)n([C@H]3CC[C@H](OC(C)C)CC3)c(=O)c2c1`, for which the selectivity ratio worked out at 44.
The same measure, in the same setting: the value for `CC(=O)Nc1ccc2[nH]c(=O)n(CCCC(C)C)c(=O)c2c1` was 43; that for `CC(C)(C)C(=O)Nc1ccc2[nH]c(=O)n(CCC3CCCCC3)c(=O)c2c1` was 1.8; that for `CC(=O)Nc1ccc2[nH]c(=O)n(C3CCN(C(=O)OC(C)(C)C)C3)c(=O)c2c1` (racemic) was 3.1.
The same measure, in the same setting: the value for `CC(=O)Nc1ccc2[nH]c(=O)n(C3CCC(C(C)(C)C)C3)c(=O)c2c1` (racemic) was 2100.
Still for that read-out and setting: to `CC(C)(C)[C@H]1CC[C@H](n2c(=O)[nH]c3ncc(N)cc3c2=O)CC1` belongs 95.

System in a further series: not listed separately
Briefly: Kinetic aqueous solubility of compound in DMSO by nephelometric analysis. The series is classed as physicochemical. Conditions: read-out: Kinetic_solubility.
In the case of `CC(=O)Nc1ccc2[nH]c(=O)n([C@H]3CC[C@H](C(C)(C)O)CC3)c(=O)c2c1`, the solubility kinetic came out at 130 µM (≈ 46.7 µg/mL).

System in another series: not listed separately
Description: Intrinsic clearance in CD1 mouse liver microsomes at 0.5 uM measured up to 30 mins in presence of NADPH by UPLC-MSMS analysis. Format: ADME, Microsome. Conditions: 0.5 h. For orientation: Microsomes from liver hold many membrane-bound enzymes, among them those of drug oxidation.
`CC[C@H]1CC[C@H](n2c(=O)[nH]c3ccc(N)cc3c2=O)CC1`: the intrinsic clearance is 4.2 mL/min/g.
On the same count and under the same terms, the value for `CC(=O)Nc1ccc2[nH]c(=O)n([C@H]3CC[C@H](OC(C)C)CC3)c(=O)c2c1` was less than 0.5 mL/min/g; that for `CC(=O)Nc1ccc2[nH]c(=O)n(C3CCC(C(C)(C)C)C3)c(=O)c2c1` (racemic) was 31 mL/min/g.
The same measure, in the same setting: to `CC(C)(C)[C@H]1CC[C@H](n2c(=O)[nH]c3ncc(N)cc3c2=O)CC1` belongs 0.5 mL/min/g.
